Experiments:
sedge, umbrella = experiment: Test B flooded paddy test; type: in vivo, Cyperus difformis; details: Flood, 250 g ai/ha, 0 to 100 scale where 0 is no effect and 100 is complete control
In short: (§1)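 Plants at 2-leaf stage; pots flooded to 3 cm above soil and compound applied directly into paddy water, depth held throughout. After 13 to 15 days in greenhouse, visual rating versus controls on 0 (no effect) to 100 (complete control) scale.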

corn [1] = experiment: Test C preemergence; type: in vivo, Zea mays
In short: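 Seeds were sown in loam–sand blend and sprayed preemergence, while plants at 1- to 4-leaf stage (2–18 cm) in peat-based medium received postemergence sprays; test chemicals were formulated in a non-phytotoxic solvent with surfactant. After 13–15 days in a greenhouse, injury was rated visually against controls, 0 (no effect) to 100 (complete control).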

giant foxtail = experiment: Test C preemergence; type: in vivo, Setaria faberii
Text: Seeds of plant species selected from blackgrass (Alopecurus myosuroides), Italian ryegrass (Lolium multiflorum), wheat, winter (winter wheat, Triticum aestivum), galium (catchweed bedstraw, Galium aparine), corn (Zea mays), large (Lg) crabgrass (Digitaria sanguinalis), giant foxtail (Setaria faberii), johnsongrass (Sorghum halepense), lambsquarters (Chenopodium album), morningglory (Ipomoea coccinea), yellow nutsedge (Cyperus esculentus), pigweed (Amaranthus retroflexus), ragweed (common ragweed, Ambrosia elatior), soybean (Glycine max), barnyardgrass (Echinochloa crus-galli), oilseed rape (Brassica napus), waterhemp (common waterhemp, Amaranthus rudis), kochia (Kochia scoparia), wild oat (Avena fatua), surinam grass (Brachiaria decumbens), foxtail, green (green foxtail, Setaria viridis), goosegrass (Eleusine indica), bromegrass, downy (downy bromegrass, Bromus tectorum), nightshade (eastern black nightshade, Solanum ptycanthum), cocklebur (common cocklebur, Xanthium strumarium), cupgrass, woolly (woolly cupgrass, Eriochloa villosa), bermudagrass (Cynodon dactylon), sunflower, (common oilseed sunflower, Helianthus annuus), Russian thistle (Salsola kali), and velvetleaf (Abutilon theophrasti) were planted into a blend of loam soil and sand and treated preemergence with test chemicals formulated in a non-phytotoxic solvent mixture which included a surfactant.
At the same time, plants selected from these crop and weed species and also barley, winter (winter barley, Hordeum vulgare), windgrass (Apera spica-venti), chickweed (common chickweed, Stellaria media), deadnettle (henbit deadnettle, Lamium amplexicaule), and canarygrass (littleseed canarygrass, Phalaris minor) were planted in pots containing Redi-Earth® planting medium (Scotts Company, 14111 Scottslawn Road, Marysville, Ohio 43041) comprising spaghnum peat moss, vermiculite, wetting agent and starter nutrients and treated with postemergence applications of test chemicals formulated in the same manner. Plants ranged in height from 2 to 18 cm (1- to 4-leaf stage) for postemergence treatments. Treated plants and controls were maintained in a greenhouse for 13 to 15 days, after which time all species were compared to controls and visually evaluated. Plant response ratings, summarized in Table C, are based on a scale of 0 to 100 where 0 is no effect and 100 is complete control. A dash (-) response means no test result.

morningglory = experiment: Test A preemergence; type: in vivo, Ipomoea spp.; details: for Plant response rating, Morningglory / Morningglory plant response rating (0 to 100 scale): 125 g ai/ha
In short: (§2)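 Scoring: eye-based comparison with untreated controls, 0 for no effect through 100 for complete control, at about day 10. Treatments: directed soil spray preemergence; foliar spray postemergence on 2–10 cm plants at the one- to two-leaf stage. Medium: loam soil with sand.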

corn [2] = experiment: Test A preemergence; type: in vivo, Zea mays
In short: as §2

barnyardgrass [3] = experiment: Test B flooded paddy test; type: in vivo, Echinochloa crus-galli; details: Flood, 250 g ai/ha, 0 to 100 scale where 0 is no effect and 100 is complete control
In short: as §1

barnyardgrass [4] = experiment: Test A postemergence; type: in vivo, Echinochloa crus-galli
In short: as §2

[5] = 0 to 100 scale where 0 is no effect and 100 is complete control
[6] = 16 g ai/ha, preemergence, scale 0 to 100 (0 no effect, 100 complete control)
[7] = 62 g ai/ha, preemergence, scale 0 (no effect) to 100 (complete control)
[8] = 125 g ai/ha, preemergence, scale 0 (no effect) to 100 (complete control)
[9] = Preemergence, 31 g ai/ha, scale 0 to 100, 0 no effect, 100 complete control
[10] = 500 g ai/ha, 0 to 100 scale, 0 no effect, 100 complete control, approx. 10 days
[11] = 125 g ai/ha, 0 to 100 scale where 0 is no effect and 100 is complete control
[12] = 500 g ai/ha, 0 to 100 scale where 0 is no effect and 100 is complete control
[13] = Preemergence, 62 g ai/ha, scale 0 to 100, 0 no effect, 100 complete control

Row | Structure (SMILES) | Plant response rating, Morningglory (morningglory; [5]) | Plant response rating, Sedge, Umbrella (sedge, umbrella) | Corn plant response rating (corn [1]; [6]) | Corn plant response rating (corn [1]; [7]) | Corn plant response rating (corn [1]; [8]) | Plant response rating, Corn (corn [1]; [9]) | Foxtail, Giant plant response rating (giant foxtail; [6]) | Foxtail, Giant plant response rating (giant foxtail; [7]) | Foxtail, Giant plant response rating (giant foxtail; [8]) | Plant response rating, Foxtail, Giant (giant foxtail; [9]) | Plant response rating, Corn (corn [2]; [11]) | Plant response rating, Barnyardgrass (barnyardgrass [3]) | Plant response rating, Barnyardgrass (barnyardgrass [4]; [12]) | Morningglory plant response rating (0 to 100 scale) (morningglory) | Morningglory plant response rating (morningglory; [12]) | Corn plant response rating (corn [2]; [12]) | Barnyardgrass plant response rating (barnyardgrass [4]; [11]) | other results
1 | FC(F)(F)c1cnn(-c2ccccc2Oc2ncc(Br)cn2)c1 [Compound 18, 5-bromo-2-[2-[4-(trifluoromethyl)-1H-pyrazol-1-yl]phenoxy]pyrimidine] | 0 |  |  |  |  |  |  |  |  |  |  |  |  |  |  |  |  | pest or weed control at 250 g/ha (sedge, umbrella; Cyperus difformis, read-out: Plant response rating, Sedge, Umbrella): 90%; plant injury at 62 g/ha (corn [1]; Zea mays, pre-emergence, 62 g ai/ha, preemergence, scale 0 (no effect) to 100 (complete control), read-out: Corn plant response rating): 10%; plant injury at 125 g/ha (corn [1]; Zea mays, pre-emergence, 125 g ai/ha, preemergence, scale 0 (no effect) to 100 (complete control), read-out: Corn plant response rating): 10%; plant injury at 250 g/ha (corn [1]; Zea mays, pre-emergence, 250 g ai/ha, preemergence, scale 0 (no effect) to 100 (complete control), read-out: Corn plant response rating): 35%; Corn plant response rating (crop injury, 0 = no effect, 100 = complete kill) at 31 g/ha (corn [1]; Zea mays, pre-emergence, Preemergence, 31 g ai/ha, scale 0 to 100, 0 no effect, 100 complete control): 0%; pest or weed control at 62 g/ha (giant foxtail; Setaria faberi, pre-emergence, 62 g ai/ha, preemergence, scale 0 (no effect) to 100 (complete control), read-out: Foxtail, Giant plant response rating): 100%; pest or weed control at 125 g/ha (giant foxtail; Setaria faberi, pre-emergence, 125 g ai/ha, preemergence, scale 0 (no effect) to 100 (complete control), read-out: Foxtail, Giant plant response rating): 100%; pest or weed control at 250 g/ha (giant foxtail; Setaria faberi, pre-emergence, 250 g ai/ha, preemergence, scale 0 (no effect) to 100 (complete control), read-out: Foxtail, Giant plant response rating): 100%; pest or weed control at 31 g/ha (giant foxtail; Setaria faberi, pre-emergence, Preemergence, 31 g ai/ha, scale 0 to 100, 0 no effect, 100 complete control, read-out: Plant response rating, Foxtail, Giant): 65%; pest or weed control at 500 g/ha (morningglory; Ipomoea, pre-emergence, 240 h, 500 g ai/ha, 0 to 100 scale, 0 no effect, 100 complete control, approx. 10 days, read-out: Morningglory plant response rating): 40%; Corn plant response rating (crop injury, 0 = no effect, 100 = complete kill) at 125 g/ha (corn [2]; Zea mays, pre-emergence, 240 h, 125 g ai/ha, 0 to 100 scale where 0 is no effect and 100 is complete control): 0%; plant injury at 500 g/ha (corn [2]; Zea mays, pre-emergence, 240 h, 500 g ai/ha, 0 to 100 scale, 0 no effect, 100 complete control, approx. 10 days, read-out: Corn plant response rating): 10%; pest or weed control at 250 g/ha (barnyardgrass [3]; Echinochloa crus-galli, read-out: Plant response rating, Barnyardgrass): 30%; pest or weed control at 125 g/ha (barnyardgrass [4]; Echinochloa crus-galli, post-emergence, 240 h, 125 g ai/ha, 0 to 100 scale where 0 is no effect and 100 is complete control, read-out: Plant response rating, Barnyardgrass): 60%; pest or weed control at 500 g/ha (barnyardgrass [4]; Echinochloa crus-galli, post-emergence, 240 h, 500 g ai/ha, 0 to 100 scale, 0 no effect, 100 complete control, read-out: Plant response rating Barnyardgrass): 100%
2 | Fc1cnc(Oc2cccc(C(F)F)c2-n2cc(Br)cn2)nc1 [Compound 112] | 80 | 85 | 0 | 5 | 20 | 0 | 15 | 100 | 100 | 85 | 0 | 0 | 90 |  |  |  |  | Morningglory plant response rating (morningglory; [10]): 90; Corn plant response rating (corn [2]; [10]): 50; Plant response rating, Barnyardgrass (barnyardgrass [4]; [11]): 40
3 | Fc1cccc(Oc2ncc(Cl)cn2)c1-n1cc(I)cn1 [Compound 179] |  | 85 | 0 | 5 | 15 | 5 | 40 | 100 | 100 | 85 | 0 | 20 | 100 | 10 | 80 | 10 | 80 | 
4 | CCOc1cnn(-c2ccccc2Oc2ncc(Cl)cn2)c1 [Compound 187] |  | 50 | 0 |  | 5 |  | 0 |  | 85 |  |  | 0 | 90 | 0 | 50 | 40 | 80 | Plant response rating, Corn (corn [1]; [13]): 5; Plant response rating, Foxtail, Giant (giant foxtail; [13]): 85; Corn plant response rating (0 to 100 scale) (corn [2]; 125 g ai/ha): 0
